The values below come from a melting point compilation (Tetko et al.; mined from patent text by program, amines drawn as free bases though some values may be those of a salt).

Some results are limits rather than exact numbers.

A word on the melting point: it is the temperature, or range, at which the solid turns liquid. `CC(C)CCn1c(=O)[nH]c2cc(Cl)cc(Cl)c2c1=O` returned a melting point of 227 to 229 °C.
With `COc1cc2cc(Cc3ccccc3)c(C)cc2c(C(C)C)c1OC` the figure was 159 to 161 °C.
`CCc1nc(/C=C/c2cn(-c3ccccc3)nc2OCc2cc(OCc3nc(-c4ccc(CC(=O)O)cc4)oc3C)no2)cs1` gave a melting point of 156 to 158 °C.
With `COc1ccc(-c2nc3scc(-c4cc(C(C)(C)C)c(O)c(C(C)(C)C)c4)n3c2-c2ccc(OC)cc2)cc1` the figure was 236 to 237 °C; with `C#Cc1ccc(SC)cc1Cl`, 46 to 50 °C.
In the case of `Cc1cc2ncnc(N3CCc4ccc(Cl)cc43)c2cc1C`, the melting point was determined as 199 °C.
With `O=c1[nH]c(C2CCNCC2)nc2ccccc12` the figure was 244 to 245 °C; with `C=CCN(CC=C)S(=O)(=O)c1ncn(C(=O)N(CC)CC)n1`, 49 to 51 °C; with `Cc1c2c(cc3c(=O)c4c(F)cccc4oc13)CC(C(=O)O)O2` (stereo not given), 292 to 295 °C.
With `CC1C=C2C(=CC=CC23NC(=O)NC3=O)O1` (stereo not given) the figure was 234 to 236 °C; with `Cc1c(CNCCc2cc3cccc(F)c3n2C)ncn1S(=O)(=O)N(C)C`, 114 to 116 °C; with `O=C(O)Cc1ccc(SCCNC(=O)C2Cc3ccccc3N2S(=O)(=O)c2ccc(-c3ccccc3C(F)(F)F)cc2)c(Cl)c1` (stereo not given), 86 °C.
The same measure for `Cc1nc(C(F)F)c(C(=O)Nc2ccccc2-c2ccc(Br)cc2)s1`: 151 °C.
The compound `CCC(C)(C)c1ccc(S(=O)(=O)N2C(=O)C(NCCN3CCOCC3)(c3ccccc3Cl)c3cc(Cl)ccc32)cc1` (stereo not given) gave a melting point of 147 °C.
With `CNC(C)=C(C(=O)OC)C(=O)c1ccccc1` the figure was 75 to 77 °C; with `Cn1cc(C(=O)NCc2ccc(Cl)cc2)c(=O)c2cc(CN3CCC[C@@H]3[C@@H](O)c3ccccc3)sc21` (relative stereo), 158 to 162 °C; with `COC(=O)C(C(=O)OC)c1cc([N+](=O)[O-])ccc1C(=O)O`, 153 °C.
`COc1c(N2CCNCC2)c(F)cc2c(=O)c(C(=O)O)c3n(c12)C(C)S3` (stereo not given) registered a melting point of 278 to 280 °C.
The compound `COc1cccc2c1nc(C(F)F)n2-c1nc(Nc2ccc(N)nc2)nc(N2CCOCC2)n1` displayed a melting point of 267 to 270 °C.
In turn, `COC(=S)OC(C(=O)OC(c1ccccc1)c1ccccc1)c1ccccc1` (stereo not given) gave a melting point of 74 °C.
The same measure for `CC1(C)CN=C(c2cnc(S(C)(=O)=O)c(Cl)c2)O1`: 102 to 105 °C; for `CCCCc1nc2c(N)nc3ccccc3c2n1CC(C)(C)OCCS(C)(=O)=O`: 196 to 198 °C; for `c1ccc2c(c1)Cn1ncnc1-2`: 116 to 117 °C.
With `CCc1ccc(-c2ccc3c(c2)C=C(C(=O)Nc2ccc(CN(C)C4CCOCC4)cc2)CCN3C)cc1` the figure was 164 to 165 °C; with `CCCCOc1c(CNC(=O)OC(C)(C)C)n(CC(C)C)c(=O)c2ccc(-c3nnn[nH]3)cc12`, 152 to 153 °C; with `COc1cc(N(C)C)ccc1Nc1nc(Nc2ccc3c(c2)C(C)(C)CCC(=O)N3C)ncc1Cl`, 244 to 263 °C.
As to `OCCCc1ccc(OCCN2CCOCC2)cc1Oc1ncc(C(F)(F)F)cc1Cl`, the melting point lay in the range of 69.2 to 70.4 °C.
Regarding `FC(F)(F)CN1CCN=C(c2ccccc2)c2cc(Cl)ccc21`, the melting point lay within 164 to 165 °C.
With `COc1cc(C(=O)/C=C/c2c(-c3ccc(F)cc3)nc3sccn23)cc(OC)c1OC` the figure was 222 to 225 °C; with `CN1C(=O)CCC2(C)C1=CCc1cc(F)ccc12` (stereo not given), 110 to 111 °C; with `CC(C)C[C@H](NC(=O)OCc1ccccc1)C(=O)N[C@@H](Cc1ccccc1)C(=O)CSCc1ccccc1`, 86 to 87 °C.
The same measure for `CS(=O)(=O)c1ccc(-c2ccccc2-c2ccc(Cl)cc2)cc1`: 180 to 181 °C; for `O=C1OC2(CCC(N3CCN(c4ccc(F)cc4)CC3)CC2)c2cc(F)ccc21` (stereo not given): > 250 °C.
With `Cc1ccc(S(=O)(=O)Nc2ccc([N+](=O)[O-])cc2Cl)cc1` the figure was 167 to 168 °C; with `CCCCNC(=O)Nc1ccc(-n2ccnc2)cc1C(=O)NCC1CCN(C(c2ccccc2)c2ccccc2)CC1`, 197 to 199 °C; with `CC(=O)OC1CSC(Oc2cncc(-c3ccc(OC(C)C)c(F)c3)c2)C(OC(C)=O)C1OC(C)=O` (stereo not given), 65 °C.
In turn, `CC(=O)Nc1ccc([N+](=O)[O-])c(C)c1C(=O)O` gave a melting point of 190 to 191 °C.
With `O=C(O)CCCCCC(c1cc(F)ccc1F)S(=O)(=O)c1ccc(Cl)cc1` (stereo not given) the figure was 72 to 76 °C.
With `COc1ccc2c(c1)C(C)(C)C(CO)O2` (stereo not given) the figure was 65 to 67 °C; with `COc1ccc(C2N3CCSC3=NC2(O)c2ccc(F)cc2)cc1` (stereo not given), 150 to 151 °C; with `CCOC(=O)CCC(O)c1ccc(-c2ccccc2F)cc1` (stereo not given), 61 to 62 °C.
For the compound `O=C(O)CCc1oc(N2CCN(c3ccccc3)CC2)nc1-c1ccc(Cl)cc1`, the melting point was in the range of 177 to 178 °C.
The same measure for `c1ccc(C2CNc3ccccc3O2)cc1` (stereo not given): 113 to 116 °C; for `COc1cn(-c2ccc(N3CC4(CC4)OC3=O)cc2F)nc(-c2ccnn2-c2ccccc2)c1=O`: 200 to 201 °C.
The same measure for `COCOc1cc(COc2nn(Cc3ccccc3)cc2C=O)ccc1OCc1nc(-c2ccco2)oc1C`: 141 to 142 °C; for `COC1=CCC2=C(CCC3C2CCC2(C)C(O)CCC32)C1` (stereo not given): 110 °C.
The same measure for `CC(C)Cn1c(CNC(=O)OC(C)(C)C)c(-c2cccs2)c2cc(OCC(N)=O)ccc2c1=O`: 219 to 221 °C.
The compound `COc1cc(Nc2nccc(-c3ccc(NCCCO)cc3)n2)cc(OC)c1OC` had a melting point of 86 to 90 °C.
The same measure for `Cn1ccc(=O)c(O)c1Cc1cccnc1`: 209 to 212 °C; for `COc1cc(OC)cc(N2CCN(C(=O)N(C)c3cc(C)c(C)cc3OC)CC2)c1`: 86 to 88 °C; for `CS(=O)(=O)c1ccc(-c2cnn(-c3cccc(S(C)(=O)=O)c3)c(=O)c2-c2ccc(F)cc2)cc1`: 141 to 142 °C.
On to `COc1ccc2oc3cc(C#N)ccc3c(=O)c2c1`, for which the melting point was in the range of 254 to 255 °C.
`CCOC(=O)CC(NC(=O)c1ccc(Cl)cc1)C(=O)C(C)C` (stereo not given) came in with a melting point of 42 to 44 °C.
In turn, `NC(=O)c1sc2ccc(Br)cc2c1-c1ccccc1` registered a melting point of 201 to 202 °C.
With `CCC1Cc2ccc(C(C)C(=O)O)cc2C1=O` (stereo not given) the figure was 85 to 86 °C; with `CCCCCCCCCCCCCCCCOc1ccc(OCC(=O)Nc2ccccc2CO)cc1`, 128 to 131 °C.
Compound `CC1CCN(C(C#N)C2(c3ccc(Cl)c(Cl)c3)CCC2)CC1` (stereo not given) registered a melting point of 76 to 78 °C.
The same measure for `O=C1NCCOc2c1sc1ccccc21`: 244 to 245 °C.
In turn, `O=C(NCc1cncs1)c1ccnc(N2CCN(Cc3ccc(F)cc3)C2=O)c1` showed a melting point of 148 to 150 °C.
The same measure for `N#Cc1ccccc1Nc1cc2c(cc1Nc1ccccc1C#N)C(=O)NC2=O`: 279 to 280 °C; for `COC(=O)CCCc1cc2cc(Cl)ccc2n1S(=O)(=O)c1ccc2ccccc2c1`: 116 to 118 °C; for `CCCC[C@H](NC(=O)[C@H](CC(C)C)NC(=O)COc1ccc(Cl)cc1)C(=O)CSCc1ccco1`: 66 to 67 °C.
In turn, `COC(=O)c1nc(SC(F)(F)F)c(N)nc1N` yielded a melting point of 151 to 155 °C.
The same measure for `O=c1c2c(Cc3ccc(F)cc3)n[nH]c2c2cccnc2n1-c1cccc(OC(F)(F)F)c1`: 226 to 228 °C.
With `COCCNC(=O)c1ccc(N2CCC(N3C(=O)OCc4ccccc43)CC2)c([N+](=O)[O-])c1` the figure was 192 to 193 °C; with `CCN(CC)c1ccc2c(c1)C[C@@H]1c3ccccc3N[C@H]21` (relative stereo), 116 to 118 °C; with `CS(=O)(=O)c1cc(C=O)cc(O)c1O`, 169 to 171 °C.
As to `CCOC(=O)c1ccc(F)c([N+](=O)[O-])c1`, the melting point was found to be 50 °C.
The same measure for `Cc1c(SCCN2CCOCC2)ccnc1CSc1nc2ccccc2n1CC(=O)O`: 223 to 225 °C; for `CCOP(=O)(OCC)OC(=Cc1nccn1C)C(F)(F)F`: 54 to 64 °C.
As for `CCCCCCCCNC(=O)Nc1ccccc1C(=O)NC1CCN(C(c2ccccc2)c2ccccc2)CC1`, the melting point is 149 to 151 °C.
With `CN(C)c1ccc(CCc2nc3sc4c(n3c2CO)CCCCC4)cc1` the figure was 168 to 170 °C; with `CCOC(=O)C(C)(C)c1nc2ccc(Cl)nn2c1Cl`, 66 to 67 °C; with `O=C(N1CCc2ccc(S(=O)(=O)F)cc2C1)C(F)(F)F`, 99 to 103 °C.
Take `Cc1nc(Cl)c(-c2ccc(Cl)cc2)c(NS(=O)(=O)c2ccc(Cl)cc2)n1`: the melting point was 196 to 197 °C.
With `CC(=O)Nc1c(Cl)cc(C(C)=O)c2c1OCCO2` the figure was 181 to 182 °C; with `O=C(O)CC1c2cc([N+](=O)[O-])ccc2CCN1C(=O)OCc1ccccc1` (stereo not given), 160 to 162 °C; with `COc1ccc2cccc3c2c1C(=O)C3=O`, 218 to 220 °C.
The same measure for `CN(C=O)C1C(O)CC2C3CCc4cc(O)ccc4C3CCC21C` (stereo not given): 272 to 276 °C; for `Cn1ccc2cc(NC(=O)c3cc4cc(F)ccc4n3Cc3cccc(F)c3)ccc21`: 187 to 189 °C; for `COc1ccc(CCOc2cccc(-c3cccc(C(=O)NCCN4CCCC4)c3)n2)cc1OC`: 126 to 127 °C.
Consider `c1ccc2cc(-c3ccc(-c4nc(-c5ccc(-c6ccc7ccccc7c6)cc5)n(-c5cccc6ccccc56)n4)cc3)ccc2c1`, for which the melting point was > 250 °C.
With `CC1(C)CC(N(c2nc(F)nc(N(C3CC(C)(C)N(O)C(C)(C)C3)C3CC(C)(C)N(O)C(C)(C)C3)n2)C2CC(C)(C)N(O)C(C)(C)C2)CC(C)(C)N1O` the figure was 254 to 257 °C; with `COc1cc2nc(N3CCN(C(=O)C4CC4)CC3)nc(N)c2cc1OC`, 284 to 286 °C; with `Cc1c(N2CCc3ccccc3C2)c(F)cn2c(=O)c(C(=O)O)cc(C3CC3)c12`, 214 to 215 °C.
